IC50 and viability, T/C data for 2 molecules are collected here from PubChem BioAssay AID1963968 (Molecular Pharmacology Branch, DTP, NCI, 2024).

For this test, the system named is 945468-187-T-J3-PDC spheroids with HUVEC/MSC, viability. The experiment in a line: Anticancer human tumor 945468-187-T-J3-PDC patient-derived rectal carcinoma cell line growth inhibition [PI3K]. The following applies: for IC50: curve of first compound; for viability, T/C: stronger effect = lower value. Put shortly: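 We assembled tumor spheroids that included a stromal compartment of HUVEC and MSCs, then exposed them to targeted agents alone and together with PI3K pathway inhibitors. Concentration series descended by half-log from clinically achievable Cmax levels. Viability served as the endpoint.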

Molecules are shown by their SMILES. Several values for one entry are separate records, joined by “and”; a condition that tells them apart may be missing. Equal entries are not always repeated. Bounds are passed on as bounds.
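Also: spheroids exposed to agents for 7 days before viability read.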
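For viability, T/C in this document: 100% = DMSO vehicle control viability.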

One may read the IC50 as the concentration needed to halve the response being measured. Usually viability, T/C stands for the result in the treated group divided by that in the control group, in per cent. For `CC(Cn1ccc(-c2ccc(C#N)c(Cl)c2)n1)NC(=O)c1cc(C(C)O)[nH]n1` (configuration not stated) + Cc1nc(NC(=O)N2CCCC2C(N)=O)sc1-c1ccnc(C(C)(C)C(F)(F)F)c1, the IC50 is greater than 10 µM (second compound 0.0316 µM); greater than 10 µM (second compound 0.1 µM); greater than 10 µM (second compound 0.316 µM); greater than 10 µM (second compound 1 µM); greater than 10 µM (second compound 3.16 µM); greater than 10 µM (second compound 10 µM). Moreover, the viability, T/C (second compound 0.0316 µM, first compound 0.0316 µM) was 99.7%; the viability, T/C (second compound 0.0316 µM, first compound 0.1 µM) was 104%; the viability, T/C (second compound 0.0316 µM, first compound 0.316 µM) is 90.9%; the viability, T/C (second compound 0.0316 µM, first compound 1 µM) was 93.4%; the viability, T/C (second compound 0.0316 µM, first compound 3.16 µM) is 102%; the viability, T/C (second compound 0.0316 µM, first compound 10 µM) is 92.7%. The viability, T/C by setting is: (second compound 0.1 µM, first compound 0.0316 µM) 106%; (second compound 0.1 µM, first compound 0.1 µM) 101%; (second compound 0.1 µM, first compound 0.316 µM) 91.9%; (second compound 0.1 µM, first compound 1 µM) 109%; (second compound 0.1 µM, first compound 3.16 µM) 106%; (second compound 0.1 µM, first compound 10 µM) 96.9%. Also, the viability, T/C is, setting by setting: (second compound 0.316 µM, first compound 0.0316 µM) 95.6%; (second compound 0.316 µM, first compound 0.1 µM) 102%; (second compound 0.316 µM, first compound 0.316 µM) 93.8%; (second compound 0.316 µM, first compound 1 µM) 108%; (second compound 0.316 µM, first compound 3.16 µM) 98.8%; (second compound 0.316 µM, first compound 10 µM) 88.1%. Besides, the viability, T/C is 112% (second compound 1 µM, first compound 0.0316 µM); 109% (second compound 1 µM, first compound 0.1 µM); 98.1% (second compound 1 µM, first compound 0.316 µM); 112% (second compound 1 µM, first compound 1 µM); 100% (second compound 1 µM, first compound 3.16 µM); 98.8% (second compound 1 µM, first compound 10 µM). The viability, T/C (second compound 3.16 µM, first compound 0.0316 µM) was 104%; the viability, T/C (second compound 3.16 µM, first compound 0.1 µM) is 102%; the viability, T/C (second compound 3.16 µM, first compound 0.316 µM) is 92.5%; the viability, T/C (second compound 3.16 µM, first compound 1 µM) is 91.7%; the viability, T/C (second compound 3.16 µM, first compound 3.16 µM) was 101%; the viability, T/C (second compound 3.16 µM, first compound 10 µM) is 104%. Besides, the viability, T/C is 65.3% (second compound 10 µM, first compound 0.0316 µM); 58.1% (second compound 10 µM, first compound 0.1 µM); 53.7% (second compound 10 µM, first compound 0.316 µM); 60.2% (second compound 10 µM, first compound 1 µM); 54.4% (second compound 10 µM, first compound 3.16 µM); 63% (second compound 10 µM, first compound 10 µM).
Turning to `Cn1ncc(Cl)c1-c1cc(C(=O)NC(CN)Cc2cccc(F)c2)sc1Cl` (configuration not stated), the viability, T/C was 100% (2×) and 98.4% and 89.2% (compound 0.0316 µM); 98.1% [middle of 4 runs] (compound 0.1 µM); 97.4% [middle of 4 runs] (compound 0.316 µM); 59.7% [middle of 4 runs] (compound 3.16 µM); 50.4% [middle of 4 runs] (compound 10 µM).
